Results reported in patent US20230365537A1, “POLO LIKE KINASE 4 INHIBITORS” (ORIC Pharmaceuticals, Inc., priority 2021, published 2023).

What was measured:
[1] = molecular target: human recombinant Aurora A (Homo sapiens (Human), UniProt O14965); test: Aurora A Kinase Biochemical Assay (ADP-Glo); conditions: ratio of Aurora A IC50 to PLK4 IC50 (selectivity)
human recombinant PLK4 = human recombinant PLK4 (Homo sapiens (Human), UniProt O00444); test: PLK4 Biochemical Assay (ADP-Glo); conditions: 0.5 nM PLK4, 8.0 µM ATP, 4.7 µM MBP, 6 hours at RT
How it was run: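 Recombinant human PLK4 (added at 1.0 nM) was preincubated 15 min at RT with compound in 50 mM HEPES pH 7.5, 10 mM MgCl2, 1 mM EGTA, 1 mM DTT, 0.01% Brij-35, 0.01% BSA. ADP formed was detected by ADP-Glo luminescence (40 min ATP depletion, 30 min detection). IC50 came from a four-parameter fit.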

[2] = molecular target: human recombinant Aurora B (Homo sapiens (Human), UniProt Q96GD4); test: Aurora B Kinase Biochemical Assay (ADP-Glo); conditions: ratio of Aurora B IC50 to PLK4 IC50 (selectivity)
How it was run: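 Recombinant human Aurora B (20 nM in pH 7.5 HEPES buffer with MgCl2, EGTA, DTT, Brij-35, BSA) preincubated with compound 15 min at RT. ADP formed quantified by ADP-Glo luminescence after ATP depletion (40 min) and detection (30 min). IC50 from four-parameter non-linear regression.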

CHP-134 cells = test: CHP134 CellTiter-Glo (CTG) Assay; format: cell-based; conditions: Homo sapiens, CHP-134, 120 h, 5 days, viable cells by CellTiter-Glo
How it was run: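 CHP-134 cells seeded at 200 cells/well for 16 h, then given nine 1:3 serial dilutions in quadruplicate at 37° C, 5% CO2. Viable cells measured by CellTiter-Glo luminescence after 5 days; IC50 calculated from curves.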

Sequence of human recombinant Aurora A (O14965 whole entry): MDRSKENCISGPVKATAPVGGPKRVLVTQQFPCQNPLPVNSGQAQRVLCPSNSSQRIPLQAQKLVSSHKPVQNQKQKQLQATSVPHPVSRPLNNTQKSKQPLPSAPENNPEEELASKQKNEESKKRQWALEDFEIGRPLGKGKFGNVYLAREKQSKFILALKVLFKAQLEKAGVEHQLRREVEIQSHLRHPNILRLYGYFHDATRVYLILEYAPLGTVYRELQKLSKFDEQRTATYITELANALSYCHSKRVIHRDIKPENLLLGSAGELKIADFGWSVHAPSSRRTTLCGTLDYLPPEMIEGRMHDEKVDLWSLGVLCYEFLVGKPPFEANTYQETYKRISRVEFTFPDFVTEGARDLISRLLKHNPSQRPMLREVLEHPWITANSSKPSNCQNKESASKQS
Sequence of human recombinant PLK4 (O00444 whole entry): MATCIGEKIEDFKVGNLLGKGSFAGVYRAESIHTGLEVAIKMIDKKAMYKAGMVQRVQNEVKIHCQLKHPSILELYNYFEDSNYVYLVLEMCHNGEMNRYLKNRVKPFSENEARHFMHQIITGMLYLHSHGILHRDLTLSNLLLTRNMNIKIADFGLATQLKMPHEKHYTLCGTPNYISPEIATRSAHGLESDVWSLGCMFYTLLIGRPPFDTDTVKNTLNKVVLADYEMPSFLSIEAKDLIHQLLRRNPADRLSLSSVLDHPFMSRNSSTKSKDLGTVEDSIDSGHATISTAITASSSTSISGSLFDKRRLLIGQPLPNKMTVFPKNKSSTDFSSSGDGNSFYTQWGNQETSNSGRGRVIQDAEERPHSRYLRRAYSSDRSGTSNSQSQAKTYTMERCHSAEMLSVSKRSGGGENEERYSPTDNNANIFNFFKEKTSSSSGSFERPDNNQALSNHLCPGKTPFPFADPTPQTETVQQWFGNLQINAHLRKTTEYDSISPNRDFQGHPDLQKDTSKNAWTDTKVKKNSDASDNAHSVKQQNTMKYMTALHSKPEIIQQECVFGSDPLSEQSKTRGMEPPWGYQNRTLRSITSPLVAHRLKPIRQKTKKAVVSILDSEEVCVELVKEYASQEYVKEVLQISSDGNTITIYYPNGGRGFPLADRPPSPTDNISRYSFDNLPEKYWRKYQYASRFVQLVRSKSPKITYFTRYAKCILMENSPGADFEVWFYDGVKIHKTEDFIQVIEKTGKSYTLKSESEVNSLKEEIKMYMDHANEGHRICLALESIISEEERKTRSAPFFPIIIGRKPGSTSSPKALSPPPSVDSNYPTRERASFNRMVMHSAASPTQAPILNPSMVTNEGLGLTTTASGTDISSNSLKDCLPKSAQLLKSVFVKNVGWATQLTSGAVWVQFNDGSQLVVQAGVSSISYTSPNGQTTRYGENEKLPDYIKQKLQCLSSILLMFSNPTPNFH
Sequence of human recombinant Aurora B (Q96GD4 whole entry): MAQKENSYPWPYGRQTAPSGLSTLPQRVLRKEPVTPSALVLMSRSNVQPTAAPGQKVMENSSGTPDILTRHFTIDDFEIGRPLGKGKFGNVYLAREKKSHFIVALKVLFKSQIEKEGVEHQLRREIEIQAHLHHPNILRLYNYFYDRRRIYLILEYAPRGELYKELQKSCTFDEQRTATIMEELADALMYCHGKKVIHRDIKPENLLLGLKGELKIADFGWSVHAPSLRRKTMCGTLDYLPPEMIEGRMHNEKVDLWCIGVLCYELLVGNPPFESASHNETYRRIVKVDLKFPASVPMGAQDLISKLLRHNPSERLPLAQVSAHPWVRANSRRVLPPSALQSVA

[Aurora A IC50 (nM)]/[PLK4 IC50 (nM)] [1]	IC50 (human recombinant PLK4)	[Aurora B IC50 (nM)]/[PLK4 IC50 (nM)] [2]	Structure (SMILES)	IC50 (CHP-134 cells)
1578.3505	2.91 nM	312.3	COc1ccc2c(c1)[C@]1(C[C@H]1c1ccc3c(Nc4ccc(C(=O)NCC(F)F)nc4OC)n[nH]c3c1)C(=O)N2 [Example 244, N-(2,2-difluoroethyl)-6-methoxy-5-({6-[(1R,2S)-5′-methoxy-2′-oxo-1′,2′-dihydrospiro[cyclopropane-1,3′-indol]-2-yl]-1H-indazol-3-yl}amino)pyridine-2-carboxamide]	545 nM
1730.3523	0.738 nM	319.6476	COc1ccc2c(c1)[C@]1(C[C@H]1c1ccc3c(Nc4ccc(C(=O)N5[C@H](C)CCC[C@@H]5C)nc4OC)n[nH]c3c1)C(=O)N2 [Example 245, (1R,2S)-2-[3-({6-[(2R,6S)-2,6-dimethylpiperidine-1-carbonyl]-2-methoxypyridin-3-yl}amino)-1H-indazol-6-yl]-5′-methoxyspiro[cyclopropane-1,3′-indol]-2′(1′H)-one]	131 nM
426.8090	0.843 nM	176.8683	COc1ccc2c(c1)[C@]1(C[C@H]1c1ccc3c(Nc4ccc(C(=O)N5CC6CCC(C5)O6)nc4OC)n[nH]c3c1)C(=O)N2 [Example 246, (1R,2S)-5′-methoxy-2-(3-{[2-methoxy-6-(8-oxa-3-azabicyclo[3.2.1]octane-3-carbonyl)pyridin-3-yl]amino}-1H-indazol-6-yl)spiro[cyclopropane-1,3′-indol]-2′(1′H)-one]	68.4 nM
1434.9223	3.73 nM	423.6743	COc1ccc2c(c1)[C@]1(C[C@H]1c1ccc3c(Nc4ncc(S(C)(=O)=O)cc4Cl)n[nH]c3c1)C(=O)N2 [Example 247, (1R,2S)-2-(3-{[3-chloro-5-(methanesulfonyl)pyridin-2-yl]amino}-1H-indazol-6-yl)-5′-methoxyspiro[cyclopropane-1,3′-indol]-2′(1′H)-one]	1010 nM
683.4543	1.24 nM	206.5375	COc1ccc2c(c1)[C@]1(C[C@H]1c1ccc3c(Nc4ncc(S(=O)(=O)C(C)C)cc4OC)n[nH]c3c1)C(=O)N2 [Example 248, (1R,2S)-5′-Methoxy-2-(3-{[3-methoxy-5-(propane-2-sulfonyl)pyridin-2-yl]amino}-1H-indazol-6-yl)spiro[cyclopropane-1,3′-indol]-2′(1′H)-one]	120 nM
1734.2342	1.33 nM	268.6936	COc1ccc2c(c1)[C@]1(C[C@H]1c1ccc3c(Nc4ccc(C(=O)N(C)C)nc4Cl)n[nH]c3c1)C(=O)N2 [Example 251, 6-chloro-5-({6-[(1R,2S)-5′-methoxy-2′-oxo-1′,2′-dihydrospiro[cyclopropane-1,3′-indol]-2-yl]-1H-indazol-3-yl}amino)-N,N-dimethylpyridine-2-carboxamide]	287 nM
297.6878	5.19 nM	96.18	COc1ccc2c(c1)[C@]1(C[C@H]1c1ccc3c(Nc4ncc(C5CS(=O)(=O)C5)nc4OC)n[nH]c3c1)C(=O)N2 [Example 254, 3-[6-methoxy-5-({6-[(1R,2S)-5′-methoxy-2′-oxo-1′,2′-dihydrospiro[cyclopropane-1,3′-indol]-2-yl]-1H-indazol-3-yl}amino)pyrazin-2-yl]-1λ6-thietane-1,1-dione]	2160 nM
840.1202	1.16 nM	566.4948	COc1ccc2c(c1)[C@]1(C[C@H]1c1ccc3c(Nc4ncc(S(=O)(=O)N5CCOCC5)cc4OC)n[nH]c3c1)C(=O)N2 [Example 255]	380 nM
1143.4287	0.65 nM	1153	COc1ccc2c(c1)[C@]1(C[C@H]1c1ccc3c(Nc4ncc(S(=O)(=O)N5CC6CCC(C5)O6)cc4OC)n[nH]c3c1)C(=O)N2 [Example 256, (1R,2S)-5′-methoxy-2-(3-{[3-methoxy-5-(8-oxa-3-azabicyclo[3.2.1]octane-3-sulfonyl)pyridin-2-yl]amino}-1H-indazol-6-yl)spiro[cyclopropane-1,3′-indol]-2′(1′H)-one]	310 nM
1259.8465	3.91 nM	324.5524	CCP(=O)(CC)c1ccc(Nc2n[nH]c3cc([C@@H]4C[C@@]45C(=O)Nc4ccc(OC)cc45)ccc23)c(OC)n1 [Example 257, (1R,2S)-2-(3-{[6-(diethylphosphoryl)-2-methoxypyridin-3-yl]amino}-1H-indazol-6-yl)-5′-methoxyspiro[cyclopropane-1,3′-indol]-2′(1′H)-one]	1590 nM
1100.4954	1.41 nM	464.7558	COc1ccc2c(c1)[C@]1(C[C@H]1c1ccc3c(Nc4ncc(S(=O)(=O)C5CC5)cc4OC)n[nH]c3c1)C(=O)N2 [Example 258, (1R,2S)-2-(3-{[5-(Cyclopropanesulfonyl)-3-methoxypyridin-2-yl]amino}-1H-indazol-6-yl)-5′-methoxyspiro[cyclopropane-1,3′-indol]-2′(1′H)-one]	168 nM
1294.8084	0.971 nM	835.2904	COc1ccc2c(c1)[C@]1(C[C@H]1c1ccc3c(Nc4ncc(S(=O)(=O)C5CCOCC5)cc4OC)n[nH]c3c1)C(=O)N2 [Example 259, (1R,2S)-5′-methoxy-2-(3-{[3-methoxy-5-(oxane-4-sulfonyl)pyridin-2-yl]amino}-1H-indazol-6-yl)spiro[cyclopropane-1,3′-indol]-2′(1′H)-one]	900 nM
3488.1209	1.39 nM	526.7	CCS(=O)(=O)c1cc(OC)c(Nc2n[nH]c3cc([C@@H]4C[C@@]45C(=O)Nc4ccc(OC)cc45)ccc23)cn1 [Example 262, (1R,2S)-2-(3-{[6-(ethanesulfonyl)-4-methoxypyridin-3-yl]amino}-1H-indazol-6-yl)-5′-methoxyspiro[cyclopropane-1,3′-indol]-2′(1′H)-one]	507 nM
1133.6923	0.65 nM	181.6923	COc1ccc2c(c1)[C@]1(C[C@H]1c1ccc3c(Nc4ncc(C(=O)N5CCC5)cc4OC)n[nH]c3c1)C(=O)N2 [Example 263, (1R,2S)-2-(3-{[5-(azetidine-1-carbonyl)-3-methoxypyridin-2-yl]amino}-1H-indazol-6-yl)-5′-methoxyspiro[cyclopropane-1,3′-indol]-2′(1′H)-one]	599 nM
307.8980	0.785 nM	66.6751	COc1ccc2c(c1)[C@]1(C[C@H]1c1ccc3c(Nc4ncc(C(=O)N5CCOCC5)cc4OC)n[nH]c3c1)C(=O)N2 [Example 264, (1R,2S)-5′-methoxy-2-(3-{[3-methoxy-5-(morpholine-4-carbonyl)pyridin-2-yl]amino}-1H-indazol-6-yl)spiro[cyclopropane-1,3′-indol]-2′(1′H)-one]	860 nM
